This note sets out measurements from patent US4333938A, “Imino derivatives of 5-aminobenzodioxole-1,3 which are useful as medicaments” (Laboratoires Sarget, priority 1979, dated 1982).

By mortality is commonly meant the percentage killed.

One data set relates to blood sugar level. The experiment in a line: antidiabetic activity, blood sugar level in streptozotocin hyperglycemic rats. The format is in vivo, Female rats. Details: key: NS: the difference between the blood sugar level in the treated animals and the control animals is not significant; the difference is significant by Student's test at p≤0.05. Conditions: oral. The method, then: Female rats weighing 180-200 grams were given an intraperitoneal dose on day J0 of 100 mg/kg of streptozotocin in a 0.05 M citrate buffer at a pH of 4.5 calculated as 0.5 ml per 100 g of body weight. On day J2 hyperglycemic animals were selected by determining the blood sugar level by the orthotoludine method in a stream continuously removed from the retroorbital sinus. […] On day J3, without previous fasting, the selected animals received the treatment. This consisted of oral administration of the test compound in a 6% aqueous suspension of gum arabic at a volume of 0.5 ml per 100 g of body weight.
The animals were sacrificed one, two, or four hours after the treatment and their blood sugar levels were determined. Each group of animals was compared to a control group of animals which received only the suspension of gum arabic. Metformin was the substance chosen as the control.
The results are given in Table 8 which indicates the percentage of decrease in the blood sugar level produced by the treatment.

The nature of data set [1]: oral toxicity (mortality) in the Wistar rat. Type of data set: in vivo. Conditions: in vivo, 3000 mg/kg. The method, then:
The percentages of mortality produced by the compounds of this invention when administered orally to Swiss mice are shown in Table 1. The animals, free from specific pathogenic organisms were housed in an air conditioned room for 24 to 48 hours before the start of the experiment. They were separated into groups of 5 males and 5 females. The materials were administered to animals which had been fasted for 24 hours by means of a gastric tube in suspension in a 6% thickened julep using a volume equivalent to 0.1 ml per 10 g of body weight. […] They remained under observation for two weeks before being sacrificed and autopsied.
The toxicities of the compounds of Examples 2 and 3 were determined in the Wistar rat. The protocol which was followed was the same as that described for the mice, except that the compounds were administered in a volume equivalent to 0.5 ml per 100 g of body weight of rat. […] The product of Example 3 produced no mortality at 2000 mg/kg and 20% mortality at 3000 mg/kg.

Where [2] appears, read: 50 mg/kg, treatment 1 h before sacrificing.
Setting [3] is: 50 mg/kg, treatment 2 h before sacrificing.
Setting [4] is: 50 mg/kg, treatment 4 h before sacrificing.
Setting [5] is: 100 mg/kg, treatment 1 h before sacrificing.
The mark [6] stands for this setting: 100 mg/kg, treatment 2 h before sacrificing.
Setting [7] is: 100 mg/kg, treatment 4 h before sacrificing.
The mark [8] stands for this setting: 200 mg/kg, treatment 1 h before sacrificing.
[9] abbreviates: 200 mg/kg, treatment 2 h before sacrificing.
The mark [10] stands for this setting: 200 mg/kg, treatment 4 h before sacrificing.

For the molecule `Cc1ccc(C=Nc2ccc3c(c2)OCO3)s1` [Example 2, N-(5-methyl-2-thienylidene)-5-aminobenzodioxole-1,3], the “Percentage Decrease in the Blood Sugar” value is 13% in the data set on blood sugar level (setting [2]); 22% in the data set with blood sugar level (setting [3]); 12% with blood sugar level (setting [4]); 22% in the data set on blood sugar level (setting [5]); 32% with blood sugar level (setting [6]); 27% in the data set with blood sugar level (setting [7]). For the same molecule, the results for the “Percentage Decrease in the Blood Sugar” value in the data set on blood sugar level (setting [8]), in the data set on blood sugar level (setting [9]) and in the data set with blood sugar level (setting [10]) were 24%, 35% and 31%, respectively.

Regarding `C(=Nc1ccc2c(c1)OCO2)c1cccnc1` [Example 3, N-(3-pyridylidene)-5-aminobenzodioxole-1,3], the “Percentage Decrease in the Blood Sugar” value in the data set on blood sugar level (setting [2]) was 16%; in the data set on blood sugar level (setting [3]), “NS”; with blood sugar level (setting [4]) it was 23%; with blood sugar level (setting [5]), “NS”; with blood sugar level (setting [6]), 27%; with blood sugar level (setting [7]), 29%. Moreover, the “Percentage Decrease in the Blood Sugar” value in the data set with blood sugar level (setting [8]) is recorded as “NS”; with blood sugar level (setting [9]) it was 19%; with blood sugar level (setting [10]), 28%. In data set [1], the mortality at 336 h is 20%.
